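These data come from cells grown in 96-well plates and exposed to compound for 48 hours at five concentrations. GI50 = concentration required for 50% inhibition of growth.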 Calls of active or inactive are those of the source. No stated cut-off is given here; in the data, active = GI50 up to about 1.1 µM and inactive = higher.
Tests used:
Experiment in all cases: NCI anticancer screen, dose series, 48 h
[1] = test system: SF-295
[2] = test system: ACHN
[3] = test system: NCI/ADR-RES
[4] = test system: Hs-578T
[5] = test system: K562
[6] = test system: SK-OV-3
[7] = test system: UACC-62
[8] = test system: SR
[9] = test system: OVCAR-8
[10] = test system: OVCAR-3
[11] = test system: SF-539
[12] = test system: MDA-N
[13] = test system: NCI-H460
[14] = test system: HCT-116
[15] = test system: SW-620
[16] = test system: RXF 393
[17] = test system: HCC 2998
[18] = test system: HOP-92
[19] = test system: U-251
[20] = test system: HT-29
[21] = test system: UACC-257
[22] = test system: BT-549
[23] = test system: Malme-3M
[24] = test system: MOLT-4
[25] = test system: KM12
[26] = test system: NCI-H23
[27] = test system: COLO 205
[28] = test system: OVCAR-5
[29] = test system: SK-MEL-5
[30] = test system: T47D
[31] = test system: EKVX
[32] = test system: TK-10
[33] = test system: SF-268
[34] = test system: SN12C
[35] = test system: SNB-19
[36] = test system: MDA-MB-231
[37] = test system: SK-MEL-2
[38] = test system: SK-MEL-28
[39] = test system: NCI-H226
[40] = test system: IGROV-1
[41] = test system: M14
[42] = test system: DU-145
[43] = test system: RPMI-8226
[44] = test system: NCI-H522
[45] = test system: CAKI-1
[46] = test system: HCT-15
[47] = test system: HOP-62
[48] = test system: PC-3
[49] = test system: MCF7
[50] = test system: 786-0
[51] = test system: A549
[52] = test system: UO-31
[53] = test system: LOX IMVI
[54] = test system: HL-60
[55] = test system: SNB-75
[56] = test system: CCRF-CEM
[57] = test system: OVCAR-4
[58] = test system: MDA-MB-435

`O=C(/C=C/c1ccccc1)/C=N/N1C(=S)N(c2ccccc2)C(=N\c2ccccc2)/C1=N/c1ccccc1` was tested, and the GI50 [1] was > 100 µM (inactive), the GI50 [2] was > 100 µM (inactive) and the GI50 [3] was > 100 µM (inactive). The GI50 [4] was > 100 µM (inactive), the GI50 [5] was > 100 µM (inactive) and the GI50 [6] was > 100 µM (inactive). For the same compound, the GI50 [7] was > 100 µM (inactive), the GI50 [8] was > 100 µM (inactive) and the GI50 [9] was > 100 µM (inactive). For the same compound, the GI50 [10] was > 100 µM (inactive), the GI50 [11] was > 100 µM (inactive) and the GI50 [12] was 82.4 µM (inactive). The GI50 [13] was 58.7 µM (inactive), the GI50 [14] was 43.1 µM (inactive) and the GI50 [15] was > 100 µM (inactive). The GI50 [16] was 38.8 µM (inactive), the GI50 [17] was > 100 µM (inactive) and the GI50 [18] was > 100 µM (inactive). The GI50 [19] was > 100 µM (inactive), the GI50 [20] was > 100 µM (inactive) and the GI50 [21] was > 100 µM (inactive). For the same compound, the GI50 [22] was > 100 µM (inactive), the GI50 [23] was > 100 µM (inactive) and the GI50 [24] was > 100 µM (inactive). For the same compound, the GI50 [25] was > 100 µM (inactive), the GI50 [26] was > 100 µM (inactive) and the GI50 [27] was > 100 µM (inactive). For the same compound, the GI50 [28] was > 100 µM (inactive), the GI50 [29] was > 100 µM (inactive) and the GI50 [30] was > 100 µM (inactive). The GI50 [31] was > 100 µM (inactive), the GI50 [32] was > 100 µM (inactive) and the GI50 [33] was > 100 µM (inactive). For the same compound, the GI50 [34] was > 100 µM (inactive), the GI50 [35] was > 100 µM (inactive) and the GI50 [36] was > 100 µM (inactive). The GI50 [37] was > 100 µM (inactive), the GI50 [38] was > 100 µM (inactive) and the GI50 [39] was > 100 µM (inactive). The GI50 [40] was > 100 µM (inactive), the GI50 [41] was > 100 µM (inactive) and the GI50 [42] was > 100 µM (inactive). The GI50 [43] was > 100 µM (inactive), the GI50 [44] was 11.2 µM (inactive) and the GI50 [45] was > 100 µM (inactive). The GI50 [46] was greater than 100 µM, the GI50 [47] was > 100 µM (inactive) and the GI50 [48] was > 100 µM (inactive). For the same compound, the GI50 [49] was 33 µM (inactive), the GI50 [50] was > 100 µM (inactive) and the GI50 [51] was > 100 µM (inactive). The GI50 [52] was > 100 µM (inactive).
`CCOC(=O)C1(C#N)CC1` was tested, and the GI50 [1] was > 100 µM (inactive), the GI50 [2] was > 100 µM (inactive) and the GI50 [3] was > 100 µM (inactive). For the same compound, the GI50 [4] was > 100 µM (inactive), the GI50 [5] was > 100 µM (inactive) and the GI50 [6] was > 100 µM (inactive). The GI50 [7] was > 100 µM (inactive), the GI50 [8] was > 100 µM (inactive) and the GI50 [9] was > 100 µM (inactive). For the same compound, the GI50 [11] was > 100 µM (inactive), the GI50 [12] was > 100 µM (inactive) and the GI50 [13] was > 100 µM (inactive). For the same compound, the GI50 [14] was > 100 µM (inactive), the GI50 [15] was > 100 µM (inactive) and the GI50 [16] was 7.94 µM (inactive). For the same compound, the GI50 [17] was > 100 µM (inactive), the GI50 [19] was > 100 µM (inactive) and the GI50 [20] was > 100 µM (inactive). For the same compound, the GI50 [21] was > 100 µM (inactive), the GI50 [22] was > 100 µM (inactive) and the GI50 [23] was > 100 µM (inactive). The GI50 [24] was > 100 µM (inactive), the GI50 [25] was > 100 µM (inactive) and the GI50 [26] was > 100 µM (inactive). For the same compound, the GI50 [27] was > 100 µM (inactive), the GI50 [28] was > 100 µM (inactive) and the GI50 [29] was > 100 µM (inactive). The GI50 [30] was > 100 µM (inactive), the GI50 [31] was > 100 µM (inactive) and the GI50 [32] was > 100 µM (inactive). The GI50 [33] was > 100 µM (inactive), the GI50 [34] was > 100 µM (inactive) and the GI50 [35] was > 100 µM (inactive). The GI50 [36] was > 100 µM (inactive), the GI50 [37] was > 100 µM (inactive) and the GI50 [38] was > 100 µM (inactive). For the same compound, the GI50 [39] was > 100 µM (inactive), the GI50 [40] was > 100 µM (inactive) and the GI50 [41] was > 100 µM (inactive). The GI50 [42] was > 100 µM (inactive), the GI50 [44] was > 100 µM (inactive) and the GI50 [45] was > 100 µM (inactive). The GI50 [53] was > 100 µM (inactive), the GI50 [46] was greater than 100 µM and the GI50 [47] was > 100 µM (inactive). For the same compound, the GI50 [54] was > 100 µM (inactive), the GI50 [48] was > 100 µM (inactive) and the GI50 [49] was > 100 µM (inactive). The GI50 [55] was > 100 µM (inactive), the GI50 [50] was > 100 µM (inactive) and the GI50 [51] was > 100 µM (inactive). The GI50 [52] was > 100 µM (inactive), the GI50 [56] was > 100 µM (inactive) and the GI50 [57] was > 100 µM (inactive).
For `Cc1csc(N/C=C2\C(=O)Oc3ccccc3C2=O)n1`, the GI50 [2] was 9.02 µM (inactive), the GI50 [3] was 35.7 µM (inactive) and the GI50 [4] was 20.1 µM (inactive). The GI50 [58] was 24.9 µM (inactive), the GI50 [5] was 81.7 µM (inactive) and the GI50 [6] was 7.05 µM (inactive). The GI50 [7] was 24.6 µM (inactive), the GI50 [9] was 32 µM (inactive) and the GI50 [10] was 26.7 µM (inactive). For the same compound, the GI50 [11] was 26.9 µM (inactive), the GI50 [12] was 33.2 µM (inactive) and the GI50 [14] was 28.4 µM (inactive). The GI50 [15] was 33.2 µM (inactive), the GI50 [18] was 17.9 µM (inactive) and the GI50 [19] was 26.2 µM (inactive). For the same compound, the GI50 [20] was 36 µM (inactive), the GI50 [21] was 45.2 µM (inactive) and the GI50 [22] was 25.6 µM (inactive). The GI50 [23] was 20.5 µM (inactive), the GI50 [24] was 41 µM (inactive) and the GI50 [25] was 40 µM (inactive). For the same compound, the GI50 [26] was 18.2 µM (inactive), the GI50 [27] was 35 µM (inactive) and the GI50 [28] was 58.6 µM (inactive). The GI50 [29] was 23.9 µM (inactive), the GI50 [31] was 21.3 µM (inactive) and the GI50 [32] was 17.1 µM (inactive). For the same compound, the GI50 [33] was 26.5 µM (inactive), the GI50 [35] was 33.7 µM (inactive) and the GI50 [36] was 20.2 µM (inactive). For the same compound, the GI50 [37] was 13.4 µM (inactive), the GI50 [39] was 24.2 µM (inactive) and the GI50 [40] was 24.7 µM (inactive). The GI50 [41] was 35.8 µM (inactive), the GI50 [42] was 29 µM (inactive) and the GI50 [44] was 26.4 µM (inactive). For the same compound, the GI50 [45] was 19.8 µM (inactive), the GI50 [53] was 22.1 µM (inactive) and the GI50 [46] was 22.5 µM. The GI50 [48] was 30.2 µM (inactive), the GI50 [49] was 25.9 µM (inactive) and the GI50 [55] was 10.4 µM (inactive). The GI50 [50] was 34.8 µM (inactive), the GI50 [51] was 38.7 µM (inactive) and the GI50 [52] was 11.7 µM (inactive). For the same compound, the GI50 [56] was 35.8 µM (inactive) and the GI50 [57] was 32.7 µM (inactive).
